Structures can show the parent of a compound that is named as a salt.
How the values were obtained:
[1] = target: T1, Human Histamine H3 Receptor (Homo sapiens, UniProt Q9Y5N1); assay: Methyl histamine binding in human histamine H3 receptor cell line; details: read-out: H3 Binding Ki
T1 construct: expressed in transfected cells; host or cells: HEK293T (stably transfected; membranes prepared from the cells)
Procedure, shortened: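 Radioligand binding on membranes (10 μg/well) from a human H3 receptor cell line, 1 nM radioligand, 1 h at 30° C. in 50 mM Tris pH 7.5. Nonspecific binding defined with 10 uM clobenpropit, followed by filtration and scintillation counting. IC50 from four-parameter fit, converted to Ki by Cheng-Prusoff.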

T1 sequence (Q9Y5N1 whole entry): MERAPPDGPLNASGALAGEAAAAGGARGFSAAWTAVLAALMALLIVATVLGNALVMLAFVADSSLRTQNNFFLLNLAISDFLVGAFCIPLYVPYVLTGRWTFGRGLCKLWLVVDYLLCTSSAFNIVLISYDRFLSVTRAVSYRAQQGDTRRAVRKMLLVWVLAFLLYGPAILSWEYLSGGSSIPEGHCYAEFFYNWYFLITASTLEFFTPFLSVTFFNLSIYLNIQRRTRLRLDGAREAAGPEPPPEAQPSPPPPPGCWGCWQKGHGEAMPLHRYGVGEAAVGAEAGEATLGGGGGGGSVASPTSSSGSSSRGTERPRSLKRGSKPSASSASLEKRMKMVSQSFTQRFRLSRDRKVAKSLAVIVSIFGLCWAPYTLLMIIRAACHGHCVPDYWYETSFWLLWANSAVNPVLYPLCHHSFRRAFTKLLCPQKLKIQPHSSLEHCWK

| SMILES | melting point [°C] | Ki [1] [nM] |
| --- | --- | --- |
| O=C(c1ccc(-c2ccc3c(c2)CCN(CCN2CCCC2)C3=O)cc1)C1CC1 [Example 103, 6-[4-(cyclopropylcarbonyl)phenyl]-2-(2-pyrrolidin-1-ylethyl)-3,4-dihydro-isoquinolin-1(2H)-one] | 244 to 246 | < 10 |
| O=C1c2ccc(-n3ncc4ccccc43)cc2CCN1CCN1CCCC1 [Example 36, 6-(1H-indazol-1-yl)-2-(2-(pyrrolidin-1-yl)ethyl)-3,4-dihydroiso-quinolin-1(2H)-one hydrochlroride] | 185 to 186 | < 10 |
| CC(C)NC(=O)c1ccc(Oc2ccc3c(c2)CCN(CCN2CCCC2)C3=O)cc1 [Example 94, N-isopropyl-4-{[1-oxo-2-(2-pyrrolidin-1-ylethyl)-1,2,3,4-tetrahydroisoquinolin-6-yl]oxy}benzamide] | 223 to 224 | < 10 |
| O=C(NC1CCC1)c1ccc(Oc2ccc3c(c2)CCN(CCN2CCCC2)C3=O)cc1 [Example 97, N-cyclobutyl-4-{[1-oxo-2-(2-pyrrolidin-1-ylethyl)-1,2,3,4-tetrahydroisoquinolin-6-yl]oxy}benzamide] | 236 to 237 | 10.1 to 25 |
| C[C@@H]1CCCN1CCN1Cc2cc(-c3ccc(C(=O)N4CCCC4)cc3)ccc2C1=O [Example 119, 2-{2-[(2R)-2-methylpyrrolidin-1-yl]ethyl}-5-[4-(pyrrolidin-1-ylcarbonyl)phenyl]-isoindolin-1-one] | 184 to 185 | > 100 |
| O=C(NC1CC1)c1ccc(Oc2ccc3c(c2)CCN(CCN2CCCC2)C3=O)cc1 [Example 99, N-cyclopropyl-4-{[1-oxo-2-(2-pyrrolidin-1-ylethyl)-1,2,3,4-tetrahydroisoquinolin-6-yl]oxy}benzamid;e] | 227 to 228 | < 10 |
| CNC(=O)c1ccc(-c2ccc3c(c2)CCN(CCN2CCCC2)C3=O)cc1 (as salt: hydrochloride) [Example 59, N-methyl-4-[1-oxo-2-(2-pyrrolidin-1-ylethyl)-1,2,3,4-tetrahydroisoquinolin-6-yl]benzamide] | 235 to 236 | – |
| O=C1c2ccc(-c3cccc(C(F)(F)F)c3)cc2CCN1CCN1CCCC1 (as salt: hydrochloride) [Example 20, 2-(2-pyrrolidin-1-ylethyl)-6-[3-(trifluoromethyl)phenyl]-3,4-dihydroisoquinolin-1(2H)-one] | 138 to 139 | – |
| CC(C)OCCNC(=O)c1ccc(-c2ccc3c(c2)CCN(CCN2CCCC2)C3=O)cc1 (as salt: hydrochloride) [Example 70, N-(2-isopropoxyethyl)-4-[1-oxo-2-(2-pyrrolidin-1-ylethyl)-1,2,3,4-tetrahydroisoquinolin-6-yl]benzamide] | 164 to 166 | – |
| O=C1c2ccc(-c3ccc(C(F)(F)F)cc3)cc2CCN1CCN1CCCC1 (as salt: hydrochloride) [Example 22, 2-(2-pyrrolidin-1-ylethyl)-6-[4-(trifluoromethyl)phenyl]-3,4-dihydroisoquinolin-1(2H)-one] | 243 to 244 | – |
| C[C@@H]1CCCN1CCN1CCc2cc(-c3ccc(F)cc3)ccc2C1=O (as salt: hydrochloride) [Example 40, 6-(4-fluorophenyl)-2-{2-[(2R)-2-methylpyrrolidin-1-yl]ethyl}-3,4-dihydroisoquinolin-1(2H)-one] | 236 to 238 | – |
| C[C@@H]1CCCN1CCN1CCc2cc(Oc3ccc(C#N)nc3)ccc2C1=O (as salt: hydrochloride) [Example 51, 5-[(2-{2-[(2R)-2-methylpyrrolidin-1-yl]ethyl}-1-oxo-1,2,3,4-tetrahydroisoquinolin-6-yl)oxy]pyridine-2-carbonitrile] | 218 to 220 | – |
| N#Cc1ccc(Oc2ccc3c(c2)CCN(CCN2CCCC2)C3=O)cn1 (as salt: hydrochloride) [Example 52, 5-{[1-oxo-2-(2-pyrrolidin-1-ylethyl)-1,2,3,4-tetrahydroisoquinolin-6-yl]oxy}pyridine-2-carbonitrile] | 203 to 205 | – |
| CCN(CC)C(=O)c1ccc(-c2ccc3c(c2)CCN(CCN2CCCC2)C3=O)cc1 (as salt: hydrochloride) [Example 62, N,N-diethyl-4-[1-oxo-2-(2-pyrrolidin-1-ylethyl)-1,2,3,4-tetrahydroisoquinolin-6-yl]benzamide] | 177 to 178 | – |
| O=C1c2ccc(-n3cccn3)cc2CCN1CCN1CCCC1 (as salt: hydrochloride) [Example 37, 6-(1H-pyrazol-1-yl)-2-(2-(pyrrolidin-1-yl)ethyl)-3,4-dihydroisoquinolin-1(2H)-one hydrochloride] | 174 to 175 | – |
| O=C(NCCCl)c1ccc(-c2ccc3c(c2)CCN(CCN2CCCC2)C3=O)cc1 (as salt: hydrochloride) [Example 123, N-(2-chloroethyl)-4-[1-oxo-2-(2-pyrrolidin-1-ylethyl)-1,2,3,4-tetrahydroisoquinolin-6-yl]benzamide] | 236 to 237 | – |
| O=C(c1ccc(-c2ccc3c(c2)CCN(CCN2CCCC2)C3=O)cc1)N1CCC1 (as salt: hydrochloride) [Example 64, 6-[4-(azetidin-1-ylcarbonyl)phenyl]-2-(2-pyrrolidin-1-ylethyl)-3,4-dihydroisoquinolin-1(2H)-one] | 229 to 230 | – |
| CCN(CC)C(=O)c1ccc(-c2ccc3c(c2)CCN(CCN2CCC[C@H]2C)C3=O)cc1 (as salt: hydrochloride) [Example 65, N,N-diethyl-4-(2-{2-[(2R)-2-methylpyrrolidin-1-yl]ethyl}-1-oxo-1,2,3,4-tetrahydroisoquinolin-6-yl)benzamide] | 221 to 222 | – |

Results, then the molecule that gave them:

| melting point [°C] | Ki [1] [nM] | SMILES |
| --- | --- | --- |
| > 230 | > 100 | FC(F)(F)Oc1ccc(-c2ccc3c(c2)CCN(CCN2CCCC2)C3)cc1 [Example 171, 2-(2-pyrrolidin-1-ylethyl)-6-[4-(trifluoromethoxy)phenyl]-1,2,3,4-tetrahydroisoquinoline] |
| 153 to 155 | < 10 | CS(=O)(=O)c1ccc(-c2ccc3c(c2)CCN(CCN2CCCC2)C3=O)cc1 [Example 135, 6-[4-(methylsulfonyl)phenyl]-2-(2-pyrrolidin-1-ylethyl)-3,4-dihydroisoquinolin-1(2H)-one] |
| 231 to 232 | < 10 | O=C(c1ccc(-c2ccc3c(c2)CCN(CCN2CCCC2)C3=O)cc1F)N1CCCC1 [Example 133, 6-[3-fluoro-4-(pyrrolidin-1-ylcarbonyl)phenyl]-2-(2-pyrrolidin-1-ylethyl)-3,4-dihydroisoquinolin-1(2H)-one] |
| 232 to 234 | 25.1 to 50 | C[C@@H]1CCCN1CCN1CCc2cc(-c3ccc(F)cc3)ccc2C1 [Example 172, 6-(4-fluorophenyl)-2-{2-[(2R)-2-methylpyrrolidin-1-yl]ethyl}-1,2,3,4-tetrahydroisoquinoline] |
| 140 to 141 | – | C[C@@H]1CCCN1CCN1CCc2cc(C(=O)NC3CCCCC3)ccc2C1=O (as salt: hydrochloride) [Example 147, N-cyclohexyl-2-{2-[(2R)-2-methylpyrrolidin-1-yl]ethyl}-1-oxo-1,2,3,4-tetrahydroisoquinoline-6-carboxamide] |
| 193 to 195 | – | COC[C@@H]1CCCN1C(=O)c1ccc(-c2ccc3c(c2)CCN(CCN2CCCC2)C3=O)cc1 (as salt: hydrochloride) [Example 128, 6-(4-{[(2S)-2-(methoxymethyl)pyrrolidin-1-yl]carbonyl}phenyl)-2-(2-pyrrolidin-1-ylethyl)-3,4-dihydroisoquinolin-1(2H)-one] |
| 211 to 213.5 | – | O=C(NCc1cccs1)c1ccc(-c2ccc3c(c2)CCN(CCN2CCCC2)C3=O)cc1 (as salt: hydrochloride) [Example 121, 4-[1-oxo-2-(2-pyrrolidin-1-ylethyl)-1,2,3,4-tetrahydroisoquinolin-6-yl]-N-(2-thienylmethyl)benzamide] |
| 245 to 246 | – | O=C1c2ccc(N3CCCCC3)cc2CCN1CCN1CCCC1 (as salt: hydrochloride) [Example 162, 6-(piperidin-1-yl)-2-(2-(pyrrolidin-1-yl)ethyl)-3,4-dihydroisoquinolin-1(2H)-one] |
| 228 to 229 | – | CN(C)C(=O)c1ccc(-c2ccc3c(c2)CCN(CCN2CCCC2)C3=O)c(F)c1 (as salt: hydrochloride) [Example 137, 3-fluoro-N,N-dimethyl-4-[1-oxo-2-(2-pyrrolidin-1-ylethyl)-1,2,3,4-tetrahydroisoquinolin-6-yl]benzamide] |
| 219 to 220 | – | C[C@@H]1CCCN1CCN1CCc2cc(C(=O)NC3CCCC3)ccc2C1=O (as salt: hydrochloride) [Example 149, N-cyclopentyl-2-{2-[(2R)-2-methylpyrrolidin-1-yl]ethyl}-1-oxo-1,2,3,4-tetrahydroisoquinoline-6-carboxamide] |
| 232 to 233 | – | COC[C@H](C)NC(=O)c1ccc(-c2ccc3c(c2)CCN(CCN2CCCC2)C3=O)cc1 (as salt: hydrochloride) [Example 126, N-[(1S)-2-methoxy-1-methylethyl]-4-[1-oxo-2-(2-pyrrolidin-1-ylethyl)-1,2,3,4-tetrahydroisoquinolin-6-yl]benzamide] |
| 214 to 215 | – | C[C@@H]1CCCN1CCN1CCc2cc(C(=O)NC3CCC3)ccc2C1=O (as salt: hydrochloride) [Example 145, N-cyclobutyl-2-{2-[(2R)-2-methylpyrrolidin-1-yl]ethyl}-1-oxo-1,2,3,4-tetrahydroisoquinoline-6-carboxamide] |
| 250 to 251 | – | Fc1ccc(-c2ccc3c(c2)CCN(CCN2CCCC2)C3)cc1 [Example 177] |
| 260 to 261 | – | O=C(c1ccc(-c2ccc3c(c2)CCN(CCN2CCCC2)C3)cc1)N1CCOCC1 (as salt: hydrochloride) [Example 186, 6-[4-(morpholin-4-ylcarbonyl)phenyl]-2-(2-pyrrolidin-1-ylethyl)-1,2,3,4-tetrahydroisoquinoline] |
